Measured values taken from patent publication US20250302817A1, “METHODS FOR TREATING PTEN-MUTANT TUMORS” (Icahn School of Medicine at Mount Sinai, priority 2016, published 2025).
Like-named read-outs stand apart in the source and are kept apart here.

Key:
PI3K signaling = assay: Immunoblot of pAKT in Pten KO and WT cells; type: cell-based; conditions: 50 μM A771726
Description: Note that here as well as in FIG. 2, H-I, a large amount of DMSO was used in each condition to match the amount of orotate needed, narrowing the growth differential normally observed between leflunomide-treated and untreated cells in the PTEN mutant setting. FIG. 8B is a bar graph and immunoblot depicting cells transfected with siRNA against DHODH. The bar graph depicts cell viability measured using annexin V and 7AAD. 0.5 μg/mL actinomycin D was a positive control for cell death. (Students t-test, *p<0.05, n=3). […] FIG. 8C is an immunoblot of DHODH in Pten KO and WT cells. FIG. 8D is an immunoblot of pAKT in Pten KO and WT cells with or without treatment with 50 μM A771726. FIG. 8E and FIG. 8F are bar graphs depicting the GI50s of cells treated with dose titrations of 5-fluorouracil or mercaptopurine, respectively (Student's t-test, p>0.05, n=3). FIG. 8G depicts the confluence of prostate cells grown in media containing full glutamine (4 mM) or no added glutamine. Data shown as means±SD.
Samples were lysed in 2× Laemelli sample buffer with mercaptoethanol and were boiled before separation by SDS-PAGE on Tris-Glycine gels (Invitrogen EC60352). Wet-transfer to PVDF (Fisher ipvh00010) was followed by blocking for 1 hour in 10% nonfat milk (Fisher M-0841) in TBST. […]

[1] = system: ATR phosphorylation of CHK1 at serine 345; assay: Immunoblot of pChk1; type: cell-based; conditions: 150 μM A771726; Pten WT versus Pten^−/− cells
[2] = cited from earlier work; for median t½: healthy volunteers and MS patients
albumin = molecular target: T1, albumin (Homo sapiens, UniProt P02768); conditions: cited from earlier work
T1 construct: host or cells: human subjects (circulating albumin)
T1 sequence (P02768 25-609): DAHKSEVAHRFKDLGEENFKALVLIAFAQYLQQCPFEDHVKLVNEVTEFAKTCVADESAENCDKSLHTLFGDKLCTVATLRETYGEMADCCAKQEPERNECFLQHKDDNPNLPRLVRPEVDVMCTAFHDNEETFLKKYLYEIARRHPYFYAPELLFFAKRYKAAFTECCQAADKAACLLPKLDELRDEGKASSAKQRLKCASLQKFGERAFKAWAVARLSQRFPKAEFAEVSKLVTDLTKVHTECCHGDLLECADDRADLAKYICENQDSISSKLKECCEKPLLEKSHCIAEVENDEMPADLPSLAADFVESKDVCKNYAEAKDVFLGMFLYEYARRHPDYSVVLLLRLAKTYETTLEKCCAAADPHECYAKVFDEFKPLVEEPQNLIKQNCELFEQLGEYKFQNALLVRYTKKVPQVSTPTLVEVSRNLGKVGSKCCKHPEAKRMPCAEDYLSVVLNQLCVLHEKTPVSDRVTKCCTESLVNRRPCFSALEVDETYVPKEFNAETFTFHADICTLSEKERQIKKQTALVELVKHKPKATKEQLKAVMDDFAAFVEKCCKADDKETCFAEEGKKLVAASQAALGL

[3] = cited from earlier work
[4] = cited from earlier work; remark: listed apart in the source
[5] = healthy subjects; cited from earlier work
CYP1A2 = conditions: repeated doses of teriflunomide; cited from earlier work
[6] = molecular target: T2, organic anion transporter 3 (OAT3) (Homo sapiens, UniProt Q8TCC7); conditions: repeated doses of teriflunomide; cited from earlier work
T2 construct: host or cells: human subjects, in vivo
T2 sequence (Q8TCC7 whole entry): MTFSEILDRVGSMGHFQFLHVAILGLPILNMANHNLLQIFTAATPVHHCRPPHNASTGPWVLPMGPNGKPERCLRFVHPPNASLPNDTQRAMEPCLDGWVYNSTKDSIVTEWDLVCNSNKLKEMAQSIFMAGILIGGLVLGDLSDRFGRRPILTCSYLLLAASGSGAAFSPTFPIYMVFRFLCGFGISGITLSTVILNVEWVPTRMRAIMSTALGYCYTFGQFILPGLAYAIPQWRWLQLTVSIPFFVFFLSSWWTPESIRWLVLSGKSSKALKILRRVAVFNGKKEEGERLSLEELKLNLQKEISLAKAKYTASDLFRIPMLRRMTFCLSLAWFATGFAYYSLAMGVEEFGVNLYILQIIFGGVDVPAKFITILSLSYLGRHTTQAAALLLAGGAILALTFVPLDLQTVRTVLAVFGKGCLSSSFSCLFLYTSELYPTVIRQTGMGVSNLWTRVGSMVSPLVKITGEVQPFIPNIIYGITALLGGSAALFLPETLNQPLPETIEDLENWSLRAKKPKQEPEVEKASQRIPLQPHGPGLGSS

[7] = system: BCRP transporter and organic anion transporting polypeptide 1B1 and 1B3 (OATP1B1/1B3); conditions: repeated doses of teriflunomide; cited from earlier work
[8] = repeated doses of teriflunomide; cited from earlier work
CYP3A4 = molecular target: T3, CYP3A4 (Homo sapiens, UniProt P08684); conditions: in vivo; cited from earlier work
T3 construct: midazolam (a CYP3A4 substrate); host or cells: human subjects, in vivo
T3 sequence (P08684 whole entry): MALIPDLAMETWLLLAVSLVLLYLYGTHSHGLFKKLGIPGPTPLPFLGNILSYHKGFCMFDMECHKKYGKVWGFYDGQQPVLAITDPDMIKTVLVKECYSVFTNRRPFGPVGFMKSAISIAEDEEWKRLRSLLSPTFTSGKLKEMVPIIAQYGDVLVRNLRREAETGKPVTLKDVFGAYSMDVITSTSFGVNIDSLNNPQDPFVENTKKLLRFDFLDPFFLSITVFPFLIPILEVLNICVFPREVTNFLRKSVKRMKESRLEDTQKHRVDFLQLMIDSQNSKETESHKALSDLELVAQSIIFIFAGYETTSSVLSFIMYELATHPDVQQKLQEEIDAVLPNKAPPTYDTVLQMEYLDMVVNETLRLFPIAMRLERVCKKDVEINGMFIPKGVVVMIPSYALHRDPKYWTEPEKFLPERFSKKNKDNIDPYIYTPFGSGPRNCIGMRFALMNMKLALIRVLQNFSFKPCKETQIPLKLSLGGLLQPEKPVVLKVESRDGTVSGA

CYP2C9 = molecular target: T4, CYP2C9 (Homo sapiens, UniProt P11712); conditions: in vivo; cited from earlier work
T4 construct: S-warfarin (a CYP2C9 substrate); host or cells: human subjects, in vivo
T4 sequence (P11712 whole entry): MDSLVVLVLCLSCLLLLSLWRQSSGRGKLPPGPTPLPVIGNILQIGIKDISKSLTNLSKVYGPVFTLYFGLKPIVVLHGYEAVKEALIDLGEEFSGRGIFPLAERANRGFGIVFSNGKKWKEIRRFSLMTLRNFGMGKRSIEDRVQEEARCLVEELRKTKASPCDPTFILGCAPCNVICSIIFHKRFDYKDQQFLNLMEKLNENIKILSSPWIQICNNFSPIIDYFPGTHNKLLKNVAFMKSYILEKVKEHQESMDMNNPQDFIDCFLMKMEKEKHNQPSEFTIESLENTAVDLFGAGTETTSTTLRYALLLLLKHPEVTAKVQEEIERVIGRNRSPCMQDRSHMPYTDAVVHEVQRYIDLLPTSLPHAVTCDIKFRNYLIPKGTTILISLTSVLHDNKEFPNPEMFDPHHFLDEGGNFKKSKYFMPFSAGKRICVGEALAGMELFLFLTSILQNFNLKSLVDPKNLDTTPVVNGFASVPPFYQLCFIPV

CYP2C19 = molecular target: T5, CYP2C19 (Homo sapiens, UniProt P33261); conditions: in vivo; cited from earlier work
T5 construct: omeprazole (a CYP2C19 substrate); host or cells: human subjects, in vivo
T5 sequence (P33261 whole entry): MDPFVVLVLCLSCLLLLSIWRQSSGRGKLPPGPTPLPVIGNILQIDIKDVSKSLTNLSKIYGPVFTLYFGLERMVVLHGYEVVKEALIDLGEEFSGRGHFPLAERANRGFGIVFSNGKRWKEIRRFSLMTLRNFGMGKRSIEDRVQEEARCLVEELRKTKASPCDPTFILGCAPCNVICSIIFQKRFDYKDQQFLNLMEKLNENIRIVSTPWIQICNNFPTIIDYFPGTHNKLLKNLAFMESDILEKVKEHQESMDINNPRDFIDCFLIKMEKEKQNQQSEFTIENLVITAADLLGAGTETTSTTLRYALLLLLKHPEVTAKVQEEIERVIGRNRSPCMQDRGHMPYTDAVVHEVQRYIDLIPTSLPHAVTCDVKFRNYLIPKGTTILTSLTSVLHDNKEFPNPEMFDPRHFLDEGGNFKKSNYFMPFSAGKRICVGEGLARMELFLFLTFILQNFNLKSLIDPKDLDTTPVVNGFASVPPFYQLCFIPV

[9] = without accelerated elimination procedure

C/C(O)=C(\C#N)C(=O)Nc1ccc(C(F)(F)F)cc1 [teriflunomide, (Z)-2-Cyano-3-hydroxy-but-2-enoic acid-(4trifluoromethylphenyl)-amide]
effect on PI3K signaling (pAKT immunoblot) (PI3K signaling): did not affect PI3K signaling | ATR phosphorylation of CHK1 at serine 345 [1]: triggered ATR phosphorylation of CHK1 at serine 345 in Pten WT, but to a much lesser extent in Pten^−/− cells | effect of food on teriflunomide pharmacokinetics ([2]; human, in vivo): does not have a clinically relevant effect | time to reach steady-state concentrations ([2]; human, in vivo): approximately 3 months | volume of distribution (Vss) ([2]; human, in vivo): 0.13 L/kg | administered dose excreted via feces ([2]; over 21 days): 37.5% | administered dose excreted via feces and urine ([2]; over 21 days): 60.1% | administered dose excreted via urine ([2]; over 21 days): 22.6% | clearance rate less in females than in males ([2]; population analysis): 23% | increase in clearance, smokers over non-smokers ([2]; population-based pharmacokinetic analysis of phase III data): 38% | median t½ ([2]; repeated doses of 7 mg): approximately 18 days | median t½ ([2]; repeated doses of 14 mg): ~19 days | estimated AUC accumulation ratio ([2]; repeated doses of 7 or 14 mg): approximately 30 | total body clearance ([2]; single IV administration): 30.5 mL/h | time to reach plasma concentrations less than 0.02 mg/L, longest (individual variations in drug clearance) [2, 9]: ≤ 2 years | time to reach plasma concentrations less than 0.02 mg/L, on average [2, 9]: 8 months | bound to albumin (albumin; healthy subjects): > 99.3% | free fraction of teriflunomide (albumin; patients with chronic renal failure): approximately doubled | free fraction of teriflunomide (albumin; patients with rheumatoid arthritis): slightly higher | protein binding linearity (albumin; therapeutic concentrations): linear | additional dose eliminated (mostly in feces) ([3]; after accelerated elimination procedure with cholestyramine): 23.1% | decrease in teriflunomide plasma concentration ([3]; end of 11 days of cholestyramine or activated charcoal): more than 98% | free fraction of teriflunomide ([4]; patients with chronic renal insufficiency on CAPD or hemodialysis): almost doubled | impact of CAPD or hemodialysis on circulating levels of teriflunomide ([4]; single dose, patients (n=6) with chronic renal insufficiency): neither had a significant impact | QT interval prolongation [5]: no evidence that teriflunomide caused QT interval prolongation of clinical significance | upper bound of the 90% confidence interval for the largest placebo-adjusted, baseline-corrected QTc [5]: below 10 ms | decrease in mean AUC of caffeine (CYP1A2): 55% | decrease in mean Cmax of caffeine (CYP1A2): 18% | increase in mean cefaclor AUC [6]: 1.54 fold | increase in mean cefaclor Cmax [6]: 1.43 fold | increase in mean rosuvastatin AUC [7]: 2.51 fold | increase in mean rosuvastatin Cmax [7]: 2.65 fold | increase in mean ethinylestradiol AUC 0-24 [8]: 1.54 fold | increase in mean ethinylestradiol Cmax [8]: 1.58 fold | increase in mean levonorgestrel AUC 0-24 [8]: 1.41 fold | increase in mean levonorgestrel Cmax [8]: 1.33 fold | effect on pharmacokinetics of midazolam (a CYP3A4 substrate) (CYP3A4): does not affect the pharmacokinetics | effect on pharmacokinetics of S-warfarin (a CYP2C9 substrate) (CYP2C9): does not affect the pharmacokinetics | effect on pharmacokinetics of omeprazole (a CYP2C19 substrate) (CYP2C19): does not affect the pharmacokinetics
